The values that follow come from ChEMBL document CHEMBL6153076, “Discovery of novel JQ1 derivatives as dual ferroptosis and apoptosis inducers for the treatment of triple-negative breast cancer” (Eur J Med Chem, 2025).

Molecules are shown by their SMILES. The source made the active and inactive calls. The calls are words filed in the database; no cut-off is given here. Residues, ends and D or L forms follow the SMILES beside them. *: point of attachment. Cbz = O=C(OCc1ccccc1)*; CH2F = FC*

In data set [1] the test system is MDA-MB-231. Briefly: cells. The conditions noted are these: Homo sapiens, MDA-MB-231, 72 h.
Description: Antiproliferative activity against human MDA-MB-231 cells assessed as inhibition of cell proliferation incubated for 72 hrs by MTT assay
Data set [2] relates to BT-549. Briefly: cells. The following applies: Homo sapiens, BT-549, 72 h.
Description: Antiproliferative activity against human BT-549 cells assessed as inhibition of cell proliferation incubated for 72 hrs by MTT assay
Data set [3] has as its target T1, Phospholipid hydroperoxide glutathione peroxidase GPX4 (Homo sapiens) (UniProt P36969).
T1 sequence (whole entry): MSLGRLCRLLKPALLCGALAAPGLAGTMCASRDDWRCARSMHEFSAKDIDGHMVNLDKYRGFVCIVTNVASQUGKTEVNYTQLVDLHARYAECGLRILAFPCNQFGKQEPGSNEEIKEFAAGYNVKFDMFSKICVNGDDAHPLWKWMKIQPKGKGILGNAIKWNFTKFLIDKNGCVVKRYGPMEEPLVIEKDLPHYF
Put plainly: Inhibition of GPX4 (unknown origin) upto 3 uM incubated for 60 mins in presence of NADPH by absorbance based analysis.

In data set [4] the test system is MDA-MB-231. Put plainly: Antiproliferative activity against human MDA-MB-231 cells assessed as reduction in cell proliferation incubated for 72 hrs by MTT assay. Format: functional, cell-based.
Data set [5] is described as follows: Cytotoxicity against human MCF-10A cells assessed as inhibition of cell proliferation incubated for 72 hrs by MTT assay. Format: toxicity, cell-based.
The nature of data set [6]: Selectivity index, ratio of IC50 for antiproliferative activity against human MCF-10A cells assessed as inhibition of cell proliferation to IC50 for antiproliferative activity against human MDA-MB-231 cells assessed as inhibition of cell proliferation. The data set is classed as toxicity, cell-based. The following applies: MCF-10A cells and MDA-MB-231 cells, read-out: Ratio IC50.

In data set [7] the test system is MDA-MB-231. Briefly: Downregulation of NRF2 expression in human MDA-MB-231 cells at 5 uM. The data set is classed as functional, cell-based.
For data set [8], the system named is MDA-MB-231. Put plainly: Downregulation of HO-1 expression in human MDA-MB-231 cells at 5 uM. The data set is classed as functional, cell-based.
Data set [9] relates to MDA-MB-231. Put plainly: Induction of apoptosis in human MDA-MB-231 cells assessed as viable cells at 5 uM incubated for 48 hrs by Annexin V/PI staining based flow cytometry analysis (reference value: 97.85%). The following applies: read-out: Activity. The data set is classed as functional.
The subject of data set [10] is MDA-MB-231. Put plainly: Induction of apoptosis in human MDA-MB-231 cells assessed as early apoptotic cells at 5 uM incubated for 48 hrs by Annexin V/PI staining based flow cytometry analysis (reference value: 0.80%). The data set is classed as functional.
Data set [11] has as its system MDA-MB-231. Put plainly: Induction of apoptosis in human MDA-MB-231 cells assessed as late apoptotic cells at 5 uM incubated for 48 hrs by Annexin V/PI staining based flow cytometry analysis (reference value: 0.14%). Format: functional.
Data set [12] deals with MDA-MB-231. Put plainly: Induction of apoptosis in human MDA-MB-231 cells assessed as necrotic cells at 5 uM incubated for 48 hrs by Annexin V/PI staining based flow cytometry analysis (reference value: 0.03%). Format: functional.
The test system of data set [13] is MDA-MB-231. Briefly: Induction of cell cycle arrest in human MDA-MB-231 cells assessed as accumulation of cells at G0/G1 phase at 5 uM incubated for 48 hrs by propidium iodide staining flow cytometric analysis (reference value: 64.56 %). Format: functional.
Data set [14] relates to MDA-MB-231. Briefly: Induction of cell cycle arrest in human MDA-MB-231 cells assessed as accumulation of cells at G2/M phase at 5 uM incubated for 48 hrs by propidium iodide staining flow cytometric analysis (reference value: 8.69%). Format: functional.
Data set [15] has as its system MDA-MB-231. Briefly: Induction of cell cycle arrest in human MDA-MB-231 cells assessed as accumulation of cells at S phase at 5 uM incubated for 48 hrs by propidium iodide staining flow cytometric analysis (reference value: 26.75%). The data set is classed as functional.
In data set [16] the test system is MDA-MB-231. Put plainly: Induction of ferroptosis in human MDA-MB-231 cells assessed as cell death in presence of Z-VAD-FMK. Format: functional, cell-based.
Data set [17] relates to BT-549. Briefly: Induction of ferroptosis in human BT-549 cells assessed as cell death in presence of Z-VAD-FMK. Format: functional, cell-based.
The test system of data set [18] is MDA-MB-231. Put plainly: Induction of apoptosis in human MDA-MB-231 cells. The data set is classed as functional, cell-based.
In data set [19] the test system is MDA-MB-231. Briefly: Induction of ferroptosis in human MDA-MB-231 cells assessed as cell death in presence of ferrostatin-1. The data set is classed as functional, cell-based.
Data set [20] has as its system BT-549. Put plainly: Induction of ferroptosis in human BT-549 cells assessed as cell death in presence of ferrostatin-1. The data set is classed as functional, cell-based.

As to `Cc1sc2c(c1C)C(c1ccc(Cl)cc1)=N[C@@H](CC(=O)NCCCCCNC(=O)CCl)c1nnc(C)n1-2`, the values for the IC50 in the data set on MDA-MB-231 [1] and in the data set with BT-549 [2] were 5.57 µM and 2.62 µM, respectively.

For the molecule `Cc1sc2c(c1C)C(c1ccc(Cl)cc1)=N[C@@H](CC(=O)NCCCNC(=O)CCl)c1nnc(C)n1-2`, the figures for the half-inhibitory concentration (IC50) with MDA-MB-231 [1] and in the data set on BT-549 [2] were 4.57 µM and 2.27 µM, respectively.

`Cc1sc2c(c1C)C(c1ccc(Cl)cc1)=N[C@@H](CC(=O)Nc1ccc(NC(=O)CCl)cc1)c1nnc(C)n1-2`: the IC50 is 1.4 µM with MDA-MB-231 [1] and 0.97 µM with BT-549 [2].

With `Cc1sc2c(c1C)C(c1ccc(Cl)cc1)=N[C@@H](CC(=O)NCCN1CCN(C(=O)CCl)CC1)c1nnc(C)n1-2`, the IC50 in the data set with MDA-MB-231 [1] turned out to be 5.94 µM; in the data set with BT-549 [2], 6.99 µM.

As for `Cc1sc2c(c1C)C(c1ccc(Cl)cc1)=N[C@@H](CC(=O)NCCOCCNC(=O)CCl)c1nnc(C)n1-2`, the IC50 in the data set with MDA-MB-231 [1] worked out at 3.88 µM; in the data set with BT-549 [2], 3.4 µM.

As for `CC(=O)N1CCC(NC(=O)C[C@@H]2N=C(c3ccc(Cl)cc3)c3c(sc(C)c3C)-n3c(C)nnc32)CC1`, the inhibition entry in data set [3] is “inactive”. Also, the result in the data set with MDA-MB-231 [4] was Active.

For `Cc1sc2c(c1C)C(c1ccc(Cl)cc1)=N[C@@H](CC(=O)NCCCCNC(=O)CCl)c1nnc(C)n1-2`, the IC50 worked out at 4.64 µM in the data set with MDA-MB-231 [1] and 5.28 µM in the data set on BT-549 [2].

Consider `Cc1sc2c(c1C)C(c1ccc(Cl)cc1)=N[C@@H](CC(=O)OC(C)(C)C)c1nnc(C)n1-2`, for which, in [5], the half-inhibitory concentration (IC50) at 72 h amounted to 46.4 µM. For the same molecule, the selectivity ratio in [6] was 1.79. For the same molecule, the outcome in the data set with MDA-MB-231 [7] and in the data set on MDA-MB-231 [8] was Active. Moreover, the viability at 5 µM in the data set with MDA-MB-231 [9] came to 66.4%. In addition, the Activity in the data set on MDA-MB-231 [10] turned out to be 16.44%; with MDA-MB-231 [11] it was 16.28%; in the data set with MDA-MB-231 [12], 0.66%; with MDA-MB-231 [13] it was 50.48%; with MDA-MB-231 [14], 18.29%; in the data set with MDA-MB-231 [15], 31.23%. Moreover, the IC50 was determined as 25.9 µM with MDA-MB-231 [1] and 20.1 µM with BT-549 [2].

Consider `Cc1sc2c(c1C)C(c1ccc(Cl)cc1)=N[C@@H](CC(=O)NCC1CCN(C(=O)CCl)CC1)c1nnc(C)n1-2`, for which, in data set [5], the IC50 at 72 h was 1.47 µM. In addition, in [6], the selectivity ratio worked out at 1.47. Also, the IC50 in the data set on MDA-MB-231 [1] turned out to be 1 µM; in the data set on BT-549 [2], 0.72 µM.

Regarding `Cc1sc2c(c1C)C(c1ccc(Cl)cc1)=N[C@@H](CC(=O)NCCNC(=O)CCl)c1nnc(C)n1-2`, the values for the IC50 in the data set on MDA-MB-231 [1] and in the data set with BT-549 [2] were 3.15 µM and 2.4 µM, respectively.

As for `Cc1sc2c(c1C)C(c1ccc(Cl)cc1)=N[C@@H](CC(=O)Nc1ccc(CNC(=O)CCl)cc1)c1nnc(C)n1-2`, the IC50 with MDA-MB-231 [1] is 1.46 µM; with BT-549 [2] it was 1.07 µM.

Turning to `Cc1sc2c(c1C)C(c1ccc(Cl)cc1)=N[C@@H](CC(=O)Nc1ccc(N3CCN(C(=O)CCl)CC3)cc1)c1nnc(C)n1-2`, the IC50 with MDA-MB-231 [1] was 5.31 µM; with BT-549 [2] it was 7.53 µM.

Consider `CCOC(=O)c1ccc(NC2CCCCC2)c(N)c1`, for which the result in the data set with MDA-MB-231 [16] and in the data set with BT-549 [17] was Active.

Turning to `Cc1sc2c(c1C)C(c1ccc(Cl)cc1)=N[C@@H](CC(=O)NCCc1ccc(NC(=O)CCl)cc1)c1nnc(C)n1-2`, the 50% inhibitory concentration (IC50) at 72 h in data set [5] is 1.54 µM. Further, the selectivity ratio in data set [6] is 2.26. In addition, the IC50 stood at 0.69 µM with MDA-MB-231 [1] and 0.85 µM with BT-549 [2].

In the case of `Cc1sc2c(c1C)C(c1ccc(Cl)cc1)=N[C@@H](CC(=O)NCc1ccc(NC(=O)CCl)cc1)c1nnc(C)n1-2`, the IC50 with MDA-MB-231 [1] came to 1.5 µM; in the data set on BT-549 [2], 1 µM.

As to `Cc1sc2c(c1C)C(c1ccc(Cl)cc1)=N[C@@H](CC(=O)NCCOCCOCCNC(=O)CCl)c1nnc(C)n1-2`, the results for the IC50 in the data set with MDA-MB-231 [1] and in the data set with BT-549 [2] were 3.03 µM and 1.72 µM, respectively.

Regarding `Cc1sc2c(c1C)C(c1ccc(Cl)cc1)=N[C@@H](CC(=O)NCCCN1CCN(C(=O)CCl)CC1)c1nnc(C)n1-2`, the results for the IC50 with MDA-MB-231 [1] and in the data set with BT-549 [2] were 2.26 µM and 2.46 µM, respectively.

As for `CC(C)[C@H](NC(=O)OCc1ccccc1)C(=O)N[C@@H](C)C(=O)N[C@@H](CC(=O)O)C(=O)CF` (Cbz-Val-Ala-Asp-CH2F), the outcome in the data set on MDA-MB-231 [18] was inactive. In addition, the result in the data set on MDA-MB-231 [19] and in the data set on BT-549 [20] was Active.

For `Cc1sc2c(c1C)C(c1ccc(Cl)cc1)=N[C@@H](CC(=O)NCCC1CCN(C(=O)CCl)CC1)c1nnc(C)n1-2`, the figures for the IC50 in the data set on MDA-MB-231 [1] and with BT-549 [2] were 3.49 µM and 3.19 µM, respectively.

On to `Cc1sc2c(c1C)C(c1ccc(Cl)cc1)=N[C@@H](CC(=O)Nc1ccc(CCNC(=O)CCl)cc1)c1nnc(C)n1-2`, for which the 50% inhibitory concentration (IC50) worked out at 13.7 µM in the data set on MDA-MB-231 [1] and 17.1 µM with BT-549 [2].

In the case of `Cc1sc2c(c1C)C(c1ccc(Cl)cc1)=N[C@@H](CC(=O)NCc1ccc(CNC(=O)CCl)cc1)c1nnc(C)n1-2`, the IC50 in the data set with MDA-MB-231 [1] amounted to 1.37 µM; with BT-549 [2], 0.95 µM.

In the case of `Cc1sc2c(c1C)C(c1ccc(Cl)cc1)=N[C@@H](CC(=O)NCCCCCCNC(=O)CCl)c1nnc(C)n1-2`, the IC50 in the data set on MDA-MB-231 [1] turned out to be 5.25 µM; in the data set with BT-549 [2], 5.39 µM.

Take `Cc1sc2c(c1C)C(c1ccc(Cl)cc1)=N[C@@H](CC(=O)N1CCN(C(=O)CCl)CC1)c1nnc(C)n1-2`: in data set [5], the IC50 at 72 h was determined as 1.15 µM. For the same molecule, the selectivity ratio in [6] came to 1.55. Moreover, the IC50 stood at 0.74 µM in the data set with MDA-MB-231 [1] and 0.72 µM with BT-549 [2].
